Test results from patent US20190321429A1, “TOPICAL NATURAL LITHRAEA CAUSTICA EXTRACT COMPOSITION AND USE THEREOF IN TUMOURS” (UNIVERSIDAD DE SANTIAGO DE CHILE, priority 2016, published 2019).

Key:
[1] = system: B16 murine melanoma model; test: Transplanted B16 melanoma tumor model in B6 mice: tumor appearance and growth under topical treatment; assay type: in vivo
Method: The effect of topical treatment with 0.1% diphencyprone in mice of the B6 strain transplanted tumor model was evaluated bl6. For which initially the animals were challenged with live cells reaching generating detectable tumors between 10 days until day 20 post challenge (FIG. 1). Tumor growth has a linear behavior reaching a peak at day 7 post near challenge (FIG. 2, black circles). […] For both cases the analysis of linear growth curves of both has no significant difference when comparing the slopes. Value p=0.85.

[2] = system: spleen lymphocyte populations; test: T lymphocyte populations in spleen of tumor-challenged treated mice (CD4, CD8, Treg, Th1, Th17); assay type: in vivo; conditions: b6 mice
Method: To analyze the effects of this treatment on lymphocyte populations T to determine if there was an analogy to these clinical cases effect, the treatment effect level spleen lymphocyte populations CD4 and CD8 was evaluated also subpopulations CD4 CD25 foxp3 which realizes regulatory T cells, the CD4+population Tbet+which realizes THL population and the presence of CD4+population+Ror range which realizes TH17 population. Treatment with DPCP associated tumor challenge, induced an increase in Th1 population present in spleen (FIG. 3). The analysis of mice treated b6 at least 8 experiment allows the characterization that this population increased compared to control animals, however, not be significant. […] Value p=0.59.
As for the previous case, it was determined that the effect of treatment, this time with DNCB on lymphocyte populations T as in previous case Treg (FIG. 8), Th1 (FIGS. 9A and 9B) and Th17 (FIG. 10) in b6 mice. […] Analysis of at least 8 animals per treatment let characterize the increase in this population is significant.
Finally, for the case of animals treated with liter extract, it was observed that tumor level, two behaviors that may indicate a temporary dynamic behavior of cell populations response to tumor level. […] Furthermore, the bearings of the other populations are inconclusive (FIG. 17B, 17C and 17D).

[3] = treatment associated with tumor challenge, versus control animals

Compound: O=c1c(-c2ccccc2)c1-c1ccccc1 [DPCP, diphencyprone]
- overall effect of curative treatment on tumor model ([1]; mice, DPCP 0.1% to 1%): not have major effects
- Tumor growth (time 0 = tumor mass detected) versus control animals treated with excipients ([1]; topical 0.1% DPCP, B6 mice): no difference
- tumor appearance, average detection ([1]; topical 0.1% diphencyprone, B6 mice, post challenge, shift from 13 days, change not significant): 16 days
- Th1 population (CD4+ Tbet+) present in spleen [2, 3]: increase
- Th17 population (CD4+ Ror gamma+) present in spleen [2, 3]: showed no change
- Treg population (CD4 CD25 foxp3) in spleen [2, 3]: showed no change
- CD8 or CD4 populations associated with treatment ([2]; tumor challenge): No significant changes
